According to ChEMBL document CHEMBL2440106, “Cloning, characterization, and inhibition studies of a β-carbonic anhydrase from Leishmania donovani chagasi, the protozoan parasite responsible for leishmaniasis” (J Med Chem, 2013):
Converted amounts (≈) assume the structure as drawn. The source made the active and inactive calls. The rule behind the calls is not given here.

Experiments:
[1] = tested on: Leishmania chagasi; test: Antileishmanial activity against promastigote form of Leishmania chagasi assessed as marked swelling of vacuoles at 256 uM after 24 hrs by transmission electron microscopic analysis; format: functional, organism-based
[2] = tested on: Leishmania chagasi; test: Antileishmanial activity against promastigote form of Leishmania chagasi assessed as appearance of many number of vacuoles in cytoplasm at 256 uM after 24 hrs by transmission electron microscopic analysis; format: functional, organism-based
[3] = tested on: Leishmania chagasi; test: Antileishmanial activity against promastigote form of Leishmania chagasi MHOM/BR/1974/PP75 assessed as parasite growth inhibition at 256 uM after 120 hrs by resazurin dye-based assay relative to control; format: functional; conditions: MHOM/BR/1974/PP75, 120 h, read-out: GI
[4] = tested on: Leishmania chagasi; test: Antileishmanial activity against promastigote form of Leishmania chagasi assessed as appearance of autophagic vacuoles at 256 uM after 24 hrs by transmission electron microscopic analysis; format: functional, organism-based
[5] = tested on: Leishmania amazonensis; test: Antileishmanial activity against promastigote form of Leishmania amazonensis MHOM/BR/76/Ma-5 assessed as parasite growth inhibition after 120 hrs by resazurin dye-based assay; format: functional; conditions: MHOM/BR/76/Ma-5, 120 h
[6] = tested on: Leishmania chagasi; test: Antileishmanial activity against promastigote form of Leishmania chagasi assessed as accumulation of intracytoplasmic electron-dense granules at 256 uM after 24 hrs by transmission electron microscopic analysis; format: functional, organism-based
[7] = tested on: Leishmania chagasi; test: Antileishmanial activity against promastigote form of Leishmania chagasi MHOM/BR/1974/PP75 assessed as parasite growth inhibition at 128 uM after 120 hrs by resazurin dye-based assay relative to control; format: functional; conditions: MHOM/BR/1974/PP75, 120 h, read-out: GI
[8] = tested on: Leishmania amazonensis; test: Antileishmanial activity against promastigote form of Leishmania amazonensis MHOM/BR/76/Ma-5 assessed as parasite growth inhibition at 128 uM after 120 hrs by resazurin dye-based assay relative to control; format: functional; conditions: MHOM/BR/76/Ma-5, 120 h, read-out: GI
[9] = tested on: Leishmania chagasi; test: Antileishmanial activity against promastigote form of Leishmania chagasi MHOM/BR/1974/PP75 assessed as parasite growth inhibition after 120 hrs by resazurin dye-based assay; format: functional; conditions: MHOM/BR/1974/PP75, 120 h
[10] = tested on: Leishmania amazonensis; test: Antileishmanial activity against promastigote form of Leishmania amazonensis MHOM/BR/76/Ma-5 assessed as parasite growth inhibition at 256 uM after 120 hrs by resazurin dye-based assay relative to control; format: functional; conditions: MHOM/BR/76/Ma-5, 120 h, read-out: GI

| SMILES | inhibition of growth at 256 µM [3] [%] | inhibition of growth at 256 µM [10] [%] | also measured |
| --- | --- | --- | --- |
| O=C(N/N=C\c1cccc(Br)c1)Nc1nnc(S)s1 | 100 | 97 | Activity [1]: Active; Activity [2]: Active; Activity [4]: Active; MIC [5]: 256 µM (≈ 91.7 µg/mL); Activity [6]: Active; inhibition of growth at 128 µM [7]: 30%; inhibition of growth at 128 µM [8]: 28%; MIC [9]: 256 µM (≈ 91.7 µg/mL) |
| O=C(N/N=C1\C(=O)Nc2ccc(Br)cc21)Nc1n[nH]c(=S)s1 | 0 | 0 |  |
| C/C(CC(C)C)=N/NC(=O)Nc1nnc(S)s1 | 74.8 | 91.9 |  |
| O=C(N/N=C1\C(=O)Nc2ccccc21)Nc1n[nH]c(=S)s1 | 0 | 0 |  |
| O=C(N/N=C\c1ccc(F)cc1)Nc1nnc(S)s1 | 18 | 56 |  |
| C/C(=N/NC(=O)Nc1nnc(S)s1)c1ccc(Cl)cc1 | 0 | 7 |  |
| O=C(N/N=C\c1ccc(Cl)cc1)Nc1nnc(S)s1 | 51.5 | 62.3 |  |
| O=C(N/N=C\c1ccccc1)Nc1nnc(S)s1 | 36.3 | 45.8 |  |
| COc1cccc(/C=N\NC(=O)Nc2nnc(S)s2)c1 | 32.2 | 76.4 |  |
